The subject of assay [1] is human peripheral blood neutrophils. As to the kind of experiment: Human peripheral blood neutrophil adhesion system (PMA-stimulated adhesion to HUVEC immobilized plate). It counts as cell-based. As to conditions: 0.75 h; BCECF-AM labeled human neutrophils on HUVEC immobilized plate, PMA stimulation, 37° C. for 45 minutes; read-out: IC50 (concentration which inhibited the increase in the number of adhered cells by the PMA-stimulation by 50%). The procedure: To a plastic centrifugation tube containing 100 units of heparin sodium (Shimizu Pharmaceutical) was added 25 mL of fresh blood sampled from a healthy human. After adding and mixing therewith 8 mL of physiological saline (Otsuka Pharmaceutical) containing 6% Dextran (Nacalai), the mixture was allowed to stand at room temperature for 45 minutes for sedimentation of the erythrocytes. The resultant supernatant was transferred to another plastic centrifugation tube and combined with an equivalent volume of PBS, and then centrifuged at 1600 rpm for 7 minutes at room temperature. The obtained hematocyte fraction was suspended in 4 mL of PBS, and the suspension was superposed on 4 mL of Ficoll-Paque™ PLUS (Amersham Biosciences). […]
To 6.5 mL of RPMI-1640 medium (Sigma) containing 1 mg/mL of BSA were added 0.5 mL of a suspension of BCECF-AM labeled neutrophils at 5×10^7 cells/mL stored in ice, which was mixed, and the mixture was added at 80 μL/well to a HUVEC immobilized plate. […] The supernatant was removed from the plate, which was then washed several times with RPMI-1640 at 100 μL/well, and then PBS containing 0.1% NP-40 (Calbiochem) was added thereto at 100 μL/well and the fluorescent intensity was measured with an ARVO™SX 1420 multi label counter (Wallac) to determine the number of adhered cells.

Assay [2] relates to Jurkat cells. Nature of the assay: Jurkat cell adhesion system (PMA-stimulated adhesion to immobilized human fibronectin). The class given is cell-based. The settings on record: Jurkat cells on human fibronectin-coated 96-well plate, PMA stimulation, 37° C. for 45-60 minutes; read-out: IC50 (concentration which inhibited the increase in the number of adhered cells by the PMA-stimulation by 50%). The procedure:
Human fibronectin (Becton Dickinson Biosciences) was diluted with phosphate-buffered saline (hereinafter abbreviated as PBS; Sigma) to 0.1-0.01 μg/mL, and the diluted solution was added to a 96-well plate (Becton Dickinson) at 50 μL/well, and allowed to stand overnight at 4° C. On the following day, the supernatant was removed from the plate, and then PBS containing 1% bovine serum albumin (hereinafter abbreviated as BSA; Sigma) was added thereto at 100 μL/well and incubation was performed at 37° C. for 2 hours in a CO2 incubator (Hirasawa).
The supernatant was removed from each plate and Jurkat cells suspended in RPMI-1640 (Sigma) containing 1 mg/mL BSA were added at 80 μL/well for 2.5×10^5 cells/well. The compound (B) diluted to different concentrations with RPMI-1640 containing […] BSA was immediately added at 10 μL/well, and then 100 nM phorbol myristate acetate (hereinafter abbreviated as PMA; Sigma) in RPMI-1640 containing 1 mg/mL BSA was added at 10 μL/well and the plate was incubated in a CO2 incubator at 37° C. for 45-60 minutes. […] After incubation, 50 mM glycine buffer (pH 10.4) containing 5 mM EDTA was added at 90 μL/well, and the absorbance at 405 nm was measured with an EL340 Automated Microplate Reader (BIO-TEK) to determine the adhered cell count.

Regarding `CC1(C)CC(c2ccccc2N2CCN(CC3CC3)CC2)CC(C)(C)C1` [compound (B), 1-Cyclopropylmethyl-4-[2-(3,3,5,5-tetramethylcyclohexyl)phenyl]piperazine methanesulfonate], the IC50 in assay [1] amounted to 7.1 µM; in assay [2], 4.7 µM.

The record behind these values is patent US20090163715A1, “Intermediate in Production of [2-(3,3,5,5-Tetramethylcyclohexyl)phenyl]Piperazine Compound” (EISAI R&D MANAGEMENT CO., LTD., priority 2005, published 2009).
